In ChEMBL document CHEMBL3507680, “University of Dundee, Gates Library screen for HepG2 cell viability”:

Experiment: Human HepG2 cell viability assay in 384 well format
Assay type: toxicity, cell-based
Set-up: dose 125 nL, time 70.5 hour; concentration not given beside the values
Conditions: HepG2 cells, read-out: Inhibition

For `CC(C)NC(=O)N1CCC2(CC1)CCn1c(C3CC3)cnc12`, which cytotoxicity at 70.5 h is on record?
Its cytotoxicity at 70.5 h is 51.2%.

For `Cc1cncc(C(=O)N2CC[C@@]3(C[C@H](NS(C)(=O)=O)CCO3)C2)c1`, which cytotoxicity at 70.5 h is on record?
Its cytotoxicity at 70.5 h is -7.39%.

For `Cc1nc(C)c(C(C)NCc2c(C)nn(CC(C)C)c2N(C)C)s1` (stereo not given), which cytotoxicity at 70.5 h is on record?
Its cytotoxicity at 70.5 h is -3.31%.

Which cytotoxicity at 70.5 h does the source give for `CCn1cc(CN2CCCC3(CCC(=O)N(CCC(C)C)C3)C2)cn1` (stereo not given) here?
Its cytotoxicity at 70.5 h is -1.61%.

Which cytotoxicity at 70.5 h does the source give for `COc1cc(C)c(NC(=O)NCCn2cccc2)cc1OC` here?
The cytotoxicity at 70.5 h was 10.3%.

With `Cc1cc(C(=O)N(Cc2c(C)nn(C)c2C)C(C)C)nc(C)n1` as the molecule, how does the cytotoxicity at 70.5 h read?
The cytotoxicity at 70.5 h was 17%.

Which cytotoxicity at 70.5 h does the source give for `N#CC1(C(=O)N2C[C@H](Nc3ccnc(N)n3)[C@@H](C3CC3)C2)CCOCC1` here?
The cytotoxicity at 70.5 h was -3.81%.

With `CC(C)Oc1ncccc1CNC(=O)c1ccccn1` as the molecule, how does the cytotoxicity at 70.5 h read?
Its cytotoxicity at 70.5 h is -2.17%.

With `CC(CC(=O)Nc1ncn(CC(=O)NCc2ccccc2)n1)C1CC1` (stereo not given) as the molecule, how does the cytotoxicity at 70.5 h read?
Its cytotoxicity at 70.5 h is -14.7%.

For `Cc1ccc(C(=O)CC(SC2CCCCC2)C(=O)O)cc1` (stereo not given), which cytotoxicity at 70.5 h is on record?
The cytotoxicity at 70.5 h was -2.59%.

With `Cc1cc(NCCc2c(C)n[nH]c2C)nc(-c2cccnc2)n1` as the molecule, how does the cytotoxicity at 70.5 h read?
The cytotoxicity at 70.5 h was 20.8%.

Which cytotoxicity at 70.5 h does the source give for `CCn1cc(CN2CCCN(C(=O)CCN3CCCC3=O)CC2)cn1` here?
Its cytotoxicity at 70.5 h is -3.66%.

For `CC(C)N1[C@H](Cn2cccn2)C[C@@H]2CN(C3CCOCC3)CC[C@@H]21`, which cytotoxicity at 70.5 h is on record?
Its cytotoxicity at 70.5 h is -1.14%.

With `CS(=O)(=O)N1CCCC12CCCN(S(=O)(=O)c1cc(F)cc(F)c1)C2` (stereo not given) as the molecule, how does the cytotoxicity at 70.5 h read?
The cytotoxicity at 70.5 h was -5.59%.

With `O=C(O)c1ccnc(-c2ccnc(N3CCC4(CCO4)CC3)n2)c1` as the molecule, how does the cytotoxicity at 70.5 h read?
The cytotoxicity at 70.5 h was -11.6%.

With `CCS(=O)(=O)N1CCc2ccc(NC(=O)Nc3cccc(C)c3)cc21` as the molecule, how does the cytotoxicity at 70.5 h read?
Its cytotoxicity at 70.5 h is 17.9%.

For `CCOc1ccc(N2CCCN=C2NC(=O)c2cccc(Cl)c2)cc1`, which cytotoxicity at 70.5 h is on record?
Its cytotoxicity at 70.5 h is -9.1%.

With `COc1ccc(CN2CCC3(CCCN(C)C3=O)C2)c(Cl)c1OC` (stereo not given) as the molecule, how does the cytotoxicity at 70.5 h read?
The cytotoxicity at 70.5 h was 0.156%.

For `CC(C)Nc1ncnc2c1CCN(C(=O)CN(C)C)CC2`, which cytotoxicity at 70.5 h is on record?
Its cytotoxicity at 70.5 h is 36.6%.

For `Cn1c(CCNC(=O)CC[C@@H]2CCCN3CCCC[C@H]23)n[nH]c1=O`, which cytotoxicity at 70.5 h is on record?
The cytotoxicity at 70.5 h was -14.7%.

For `CCS(=O)(=O)N1CCC2(CC1)CN(c1ccsc1)C(=O)CO2`, which cytotoxicity at 70.5 h is on record?
Its cytotoxicity at 70.5 h is -11.6%.

With `Cc1cccc(-c2nc(CNC3CCc4nc(C)nn4C3)no2)c1` (stereo not given) as the molecule, how does the cytotoxicity at 70.5 h read?
Its cytotoxicity at 70.5 h is -3.36%.

Which cytotoxicity at 70.5 h does the source give for `CCn1cnnc1C1CCN(C(=O)c2cccc(-n3cccc3)c2)CC1` here?
The cytotoxicity at 70.5 h was -2.68%.

For `c1cc(-c2nc(C3CCN(Cc4ccsc4)CC3)no2)ccn1`, which cytotoxicity at 70.5 h is on record?
Its cytotoxicity at 70.5 h is 36.8%.

With `CN1CCCCC12CCN(c1nncs1)C2` (stereo not given) as the molecule, how does the cytotoxicity at 70.5 h read?
Its cytotoxicity at 70.5 h is -9.3%.

For `COc1ccc(/C=C/CN2CCN(c3nccnc3C)CC2)cc1`, which cytotoxicity at 70.5 h is on record?
Its cytotoxicity at 70.5 h is -5.85%.

For `Cn1cnnc1C1CCCN(Cc2nc(Cc3ccccc3)no2)C1` (stereo not given), which cytotoxicity at 70.5 h is on record?
Its cytotoxicity at 70.5 h is 13%.

Which cytotoxicity at 70.5 h does the source give for `CN(Cc1ccco1)[C@@H]1CN(C(=O)C2CCOCC2)C[C@@H]2CCCO[C@@H]21` here?
Its cytotoxicity at 70.5 h is 0.92%.

Which cytotoxicity at 70.5 h does the source give for `Cn1cc(C[C@H]2[C@@H](O)CCN2C(=O)c2ccc[nH]2)cn1` here?
The cytotoxicity at 70.5 h was -10.8%.

Which cytotoxicity at 70.5 h does the source give for `Cc1cnn(CC2CCN(CC(O)Cn3cccn3)CC2)c1` (stereo not given) here?
Its cytotoxicity at 70.5 h is -6.24%.

For `COCc1nc(C(=O)N2CCCC2c2ccncc2)cs1` (stereo not given), which cytotoxicity at 70.5 h is on record?
The cytotoxicity at 70.5 h was -1.03%.

With `CCN(CC)C(=O)C1CCC2(CCNCC2)CO1` (stereo not given) as the molecule, how does the cytotoxicity at 70.5 h read?
The cytotoxicity at 70.5 h was -14.2%.

For `OCCN1CCC(c2cncc(-c3cccc(Cl)c3)n2)CC1`, which cytotoxicity at 70.5 h is on record?
Its cytotoxicity at 70.5 h is -3.96%.

With `CCOc1ccc(Cl)cc1CNCCCn1ccnc1` as the molecule, how does the cytotoxicity at 70.5 h read?
Its cytotoxicity at 70.5 h is 23.2%.

Which cytotoxicity at 70.5 h does the source give for `O=C(CCc1ccccc1)NCC1CCN(Cc2ccsc2)CC1` here?
Its cytotoxicity at 70.5 h is 5.29%.

With `CC1=N[C@@]2(CC[C@@H]3CN(Cc4ccccc4F)C[C@@H]32)C(=O)N1CC1CC1` as the molecule, how does the cytotoxicity at 70.5 h read?
The cytotoxicity at 70.5 h was -0.339%.

For `COc1nccnc1N1CCC2(CC1)[C@H](O)C[C@@H]2OCCN(C)C`, which cytotoxicity at 70.5 h is on record?
Its cytotoxicity at 70.5 h is -7.06%.

With `CCOc1ccccc1C(=O)N1CC(=O)N(C2CCC2)CC(O)C1` (stereo not given) as the molecule, how does the cytotoxicity at 70.5 h read?
The cytotoxicity at 70.5 h was -4.81%.

For `O=C(c1ccccc1-c1nnn[nH]1)N1CCOC(C(F)(F)F)C1` (stereo not given), which cytotoxicity at 70.5 h is on record?
The cytotoxicity at 70.5 h was -9.42%.

With `CC(=O)c1ccc(S(=O)(=O)N2CCC(c3n[nH]c(C)n3)CC2)cc1` as the molecule, how does the cytotoxicity at 70.5 h read?
The cytotoxicity at 70.5 h was 24.3%.

Which cytotoxicity at 70.5 h does the source give for `CO[C@@H]1CC[C@H]2[C@H]1OCCN2C(=O)COc1ccc(C)cc1` here?
Its cytotoxicity at 70.5 h is -4.98%.

Which cytotoxicity at 70.5 h does the source give for `CN(C)[C@@H]1CCN(C(=O)NC2CCCC2)[C@H]1Cc1ccncc1` here?
Its cytotoxicity at 70.5 h is -9.4%.

For `CC(C)C(CCO)NC(=O)Nc1cc(F)ccc1-n1cccn1` (stereo not given), which cytotoxicity at 70.5 h is on record?
Its cytotoxicity at 70.5 h is -3.1%.

Which cytotoxicity at 70.5 h does the source give for `COCCCN1CCN(CCOC)C(C)C1` (stereo not given) here?
The cytotoxicity at 70.5 h was 0.867%.

For `FC(F)(F)CCc1ccnc(NCc2csc(N3CCOCC3)n2)n1`, which cytotoxicity at 70.5 h is on record?
The cytotoxicity at 70.5 h was -10.4%.

Which cytotoxicity at 70.5 h does the source give for `Cc1cc(C(=O)NC(C)Cc2cccc(Cl)c2)n(C)n1` (stereo not given) here?
Its cytotoxicity at 70.5 h is -2.61%.

Which cytotoxicity at 70.5 h does the source give for `C[S+]([O-])c1nncn1CC(=O)c1cccc(C(F)(F)F)c1` (stereo not given) here?
Its cytotoxicity at 70.5 h is -1.93%.

For `O=C1CN(C(=O)CCn2c(C(F)(F)F)cc3cccnc32)CCN1`, which cytotoxicity at 70.5 h is on record?
The cytotoxicity at 70.5 h was 4.91%.

Which cytotoxicity at 70.5 h does the source give for `COC(C)c1noc(CN(C)c2nccnc2C#N)n1` (stereo not given) here?
The cytotoxicity at 70.5 h was 1.72%.

For `Cn1cccc1C(=O)NCc1cnc2n1CCN(C(=O)c1ccoc1)C2`, which cytotoxicity at 70.5 h is on record?
The cytotoxicity at 70.5 h was -7.47%.

With `COC(=O)c1cc(C(=O)N2CCCCC2C)n(-c2ccccc2)n1` (stereo not given) as the molecule, how does the cytotoxicity at 70.5 h read?
Its cytotoxicity at 70.5 h is 19.1%.

For `O=C(C1CCOC1)N1CCC2(CC1)CN(Cc1nccs1)CCO2` (stereo not given), which cytotoxicity at 70.5 h is on record?
Its cytotoxicity at 70.5 h is -2.99%.

With `COc1ccc(C2CCCCCN2CCCNS(C)(=O)=O)cc1` (stereo not given) as the molecule, how does the cytotoxicity at 70.5 h read?
Its cytotoxicity at 70.5 h is -6.03%.

With `CCc1c(C)noc1-c1cnc(NC2CC2)nc1-c1cnc(C)cn1` as the molecule, how does the cytotoxicity at 70.5 h read?
The cytotoxicity at 70.5 h was -7.43%.

With `Cc1ccccc1C(=O)Nc1cnn(CCN2CCOCC2)c1` as the molecule, how does the cytotoxicity at 70.5 h read?
The cytotoxicity at 70.5 h was 5.4%.
